Data on 17 compounds can be found in patent US20220056019A1, “FARNESOID X RECEPTOR AGONISTS AND USES THEREOF” (Metacrine, Inc., priority 2018, published 2022).

Structures are written as SMILES. Some results are limits rather than exact numbers.

The assay concerns the target T1, hFXR (Homo sapiens, UniProt Q96RI1).
T1 construct: expressed in transfected cells; host or cells: CV-1 cells
T1 sequence (Q96RI1 1-486): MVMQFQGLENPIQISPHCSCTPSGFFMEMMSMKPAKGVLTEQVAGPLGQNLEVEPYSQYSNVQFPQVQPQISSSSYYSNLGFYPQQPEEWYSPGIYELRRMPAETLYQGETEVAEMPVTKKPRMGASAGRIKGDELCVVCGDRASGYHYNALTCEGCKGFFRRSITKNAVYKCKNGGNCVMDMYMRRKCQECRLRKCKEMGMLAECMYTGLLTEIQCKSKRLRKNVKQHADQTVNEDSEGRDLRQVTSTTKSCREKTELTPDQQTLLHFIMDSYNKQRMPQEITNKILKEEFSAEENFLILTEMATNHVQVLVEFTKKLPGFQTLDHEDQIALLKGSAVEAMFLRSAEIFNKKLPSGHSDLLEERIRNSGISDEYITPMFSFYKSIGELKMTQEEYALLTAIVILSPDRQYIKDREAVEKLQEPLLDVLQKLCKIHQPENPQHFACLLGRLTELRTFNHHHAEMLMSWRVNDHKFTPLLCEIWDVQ
T1 sequence (P19793 1-462 partner): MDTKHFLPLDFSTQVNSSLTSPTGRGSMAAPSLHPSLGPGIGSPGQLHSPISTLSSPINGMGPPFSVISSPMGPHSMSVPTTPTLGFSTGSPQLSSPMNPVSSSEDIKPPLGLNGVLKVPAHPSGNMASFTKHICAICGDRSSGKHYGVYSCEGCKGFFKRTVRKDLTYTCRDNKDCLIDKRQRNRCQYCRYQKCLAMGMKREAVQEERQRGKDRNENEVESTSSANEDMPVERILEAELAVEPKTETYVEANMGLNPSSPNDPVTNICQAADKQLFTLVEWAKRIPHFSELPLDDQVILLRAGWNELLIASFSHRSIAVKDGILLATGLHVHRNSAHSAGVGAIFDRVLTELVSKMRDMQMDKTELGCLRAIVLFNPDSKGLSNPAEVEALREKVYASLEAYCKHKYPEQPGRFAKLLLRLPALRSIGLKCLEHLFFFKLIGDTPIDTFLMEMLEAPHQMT
Description: In Vitro FXR Assay (TK): TK-ECRE-luc reporter in transfected CV-1 cells. The format is cell-based. To be noted: 18 hrs incubation, luminescence. As for the experimental part: Example B-1: In Vitro FXR Assay (TK)
CV-1 cells were seeded at a density of 2,000,000 cells in a T175 flask with DMEM+10% charcoal double-stripped FBS and incubated at 37° C. in 5% CO2 for 18 h (O/N).
After 18 h of incubation, the medium in the T175 flask was changed with fresh DMEM+10% charcoal super-stripped serum. In a polypropylene tube, 2500 μL OptiMEM (Life Technologies, Cat #31985-062) was combined with expression plasmids for hFXR, hRXR, TK-ECRE-luc and pCMX-YFP. The tube was then briefly vortexed and incubated at room temperature for 5 minutes. Transfection reagent (X-tremeGENE HP from Roche, Cat #06 366 236 001) was added to the OptiMEM/plasmid mixture vortexed and incubated at room temperature for 20 minutes. Following incubation, the transfection reagent/DNA mixture complex was added to cells in the T175 flask and the cells were incubated at 37° C. in 5% CO2 for 18 h (O/N).
Compounds were serially diluted in DMSO and added to transfected CV-1 cells. The cells were then incubated for 18 hrs. The next day cells were lysed and examined for luminescence.
Usually EC50 stands for the concentration that produces a half-maximal response. Low values mean an effect from little substance, high ones a need for much substance. `COc1ccc(C23CCC(CN(c4cc(-c5nc(C(C)C)no5)ccn4)C(=O)[C@H]4CC[C@H](OC(=O)N5CC(O)C5)CC4)(CC2)CC3)cc1C` [Compound 26.13, 4-((4-(3-isopropyl-1,2,4-oxadiazol-5-yl)pyridin-2-yl)((4-(4-methoxy-3-methylphenyl)bicyclo[2.2.2]octan-1-yl)methyl)carbamoyl)cyclohexyl trans-3-hydroxyazetidine-1-carboxylate] gave an EC50 of at most 50 nM.

`COc1ccc(C23CCC(CN(c4cc(-c5cnc(C6CC6)s5)ccn4)C(=O)[C@H]4CC[C@H](OC(=O)N5CC(CO)C5)CC4)(CC2)CC3)cc1C` [Compound 4.28, 4-((4-(2-Cyclopropylthiazol-5-yl)pyridin-2-yl)((4-(4-methoxy-3-methylphenyl)bicyclo[2.2.2]octan-1-yl)methyl)carbamoyl)(trans-cyclohexyl) 3-(hydroxymethyl)azetidine-1-carboxylate] came in with a concentration giving a half-maximal response (EC50) of at most 50 nM.

`COc1ccc([C@H]2CC[C@H](CN(c3cc(-c4cnc(C(C)C)o4)ccn3)C(=O)[C@H]3CC[C@H](OC(=O)N4CC(O)C4)CC3)CC2)cc1C` [Compound 2.37, trans-4-((4-(2-Isopropyloxazol-5-yl)pyridin-2-yl)((trans-4-(4-methoxy-3-methylphenyl)cyclohexyl)methyl)carbamoyl)cyclohexyl 3-hydroxyazetidine-1-carboxylate]: the EC50 was at most 50 nM.

As for `COc1ccc(C23CCC(CN(c4cc(-c5cnc(C(C)C)s5)ccn4)C(=O)[C@H]4CC[C@H](OC(=O)N5CC(OCCO)C5)CC4)(CC2)CC3)cc1C` [Compound 4.38, 4-((4-(2-Isopropylthiazol-5-yl)pyridin-2-yl)((4-(4-methoxy-3-methylphenyl)bicyclo[2.2.2]octan-1-yl)methyl)carbamoyl) (trans-cyclohexyl) 3-(2-hydroxyethoxy)azetidine-1-carboxylate], the half-maximal effective concentration (EC50) is at most 50 nM.

The compound `COc1ccc([C@H]2CC[C@H](CN(c3cc(-c4cnn(C(C)C)c4)ccn3)C(=O)[C@H]3CC[C@H](OC(=O)N4CC(OC)C4)CC3)CC2)cc1C` [Compound 2.18, trans-4-((4-(1-Isopropyl-1H-pyrazol-4-yl)pyridin-2-yl) ((trans-4-(4-methoxy-3-methylphenyl)cyclohexyl)methyl)carbamoyl) cyclohexyl 3-methoxyazetidine-1-carboxylate] had a concentration giving a half-maximal response (EC50) of at most 50 nM.

`CCC(=O)NC[C@H]1CC[C@H](C(=O)N(C[C@H]2CC[C@H](c3ccc(OC)c(C)c3)CC2)c2cccc(-c3cnn(C(C)C)c3)c2)CC1` [Compound 12.01, (trans)-N-(3-(1-Isopropyl-1H-pyrazol-4-yl)phenyl)-N-(((trans)-4-(4-methoxy-3-methylphenyl)cyclohexyl)methyl)-4-(propionamidomethyl)cyclohexane-carboxamide] displayed a half-maximal effective concentration (EC50) of 50 to 1000 nM.

`COc1ccc(C23CCC(CN(c4cc(-c5cnn(C(C)C)c5)ccn4)C(=O)[C@H]4CC[C@H](OC(=O)NCC(C)(C)O)CC4)(CC2)CC3)cc1C` [Compound 4.06, 4-((4-(1-Isopropyl-1H-pyrazol-4-yl)pyridin-2-yl)((4-(4-methoxy-3-methylphenyl)bicyclo [2.2.2]octan-1-yl)methyl)carbamoyl)cyclohexyl (2-hydroxy-2-methylpropyl)trans-carbamate] gave an EC50 of at most 50 nM.

`COc1ccc([C@H]2CC[C@H](CN(c3cccc(-c4cnn(C(C)C)c4)c3)C(=O)[C@H]3CC[C@H](NC(=O)C4CC(O)C4)CC3)CC2)cc1C` (stereo partly drawn) [Compound 14.02, (1r,4r)-4-(3-Hydroxycyclobutanecarboxamido)-N-(3-(1-isopropyl-1H-pyrazol-4-yl)phenyl)-N-((trans-4-(4-methoxy-3-methylphenyl)cyclohexyl)methyl) cyclohexanecarboxamide]: the half-maximal effective concentration (EC50) lay in the range of 50 to 1000 nM.

Compound `COc1ccc(C23CCC(CN(c4cc(-c5cnn(C(C)C)c5)ccn4)C(=O)[C@H]4CC[C@H](OC(=O)NC(C)C)CC4)(CC2)CC3)cc1C` [Compound 4.04, 4-((4-(1-Isopropyl-1H-pyrazol-4-yl)pyridin-2-yl)((4-(4-methoxy-3-methylphenyl)bicyclo [2.2.2]octan-1-yl)methyl)carbamoyl)cyclohexyl trans-isopropylcarbamate] came in with an EC50 of at most 50 nM.

`COc1ccc(C23CCC(CN(c4cc(-c5cnn(C6(C)CCC6)c5)ncn4)C(=O)[C@H]4CC[C@H](OC(=O)N5CC(O)C5)CC4)(CC2)CC3)cc1C` [Compound 25.26, 4-(((4-(4-Methoxy-3-methylphenyl)bicyclo[2.2.2]octan-1-yl)methyl)(6-(1-(1-methylcyclobutyl)-1H-pyrazol-4-yl)pyrimidin-4-yl)carbamoyl)cyclohexyl trans-3-hydroxyazetidine-1-carboxylate] displayed a concentration for a half-maximal effect (EC50) of at most 50 nM.

Compound `COc1ccc(C23CCC(CN(c4cc(-c5cnn(C(C)C)c5)ccn4)C(=O)[C@H]4CC[C@H](OC(=O)N5CC(C)C5)CC4)(CC2)CC3)cc1C` [Compound 4.53, 4-((4-(1-Isopropyl-1H-pyrazol-4-yl)pyridin-2-yl) ((4-(4-methoxy-3-methylphenyl)bicyclo [2.2.2]octan-1-yl)methyl)carbamoyl)cyclohexyl trans-3-methylazetidine-1-carboxylate] yielded an EC50 of at most 50 nM.

As for `CC(C)c1ccc(C23CCC(CN(c4nccc(-c5cnn(C(C)C)c5)n4)C(=O)[C@H]4CC[C@H](OC(=O)N5CC(O)C5)CC4)(CC2)CC3)cc1` [Compound 4.62, 4-((4-(1-Isopropyl-1H-pyrazol-4-yl)pyrimidin-2-yl)((4-(4-isopropylphenyl)bicyclo[2.2.2]octan-1-yl)methyl)carbamoyl)(trans-cyclohexyl) 3-hydroxyazetidine-1-carboxylate], the half-maximal effective concentration (EC50) was at most 50 nM.

For the compound `COc1ccc(C23CCC(CN(c4cc(C5CCN(C(C)C)CC5)ccn4)C(=O)[C@H]4CC[C@H](OC(=O)N5CC(O)C5)CC4)(CC2)CC3)cc1C` [Compound 23.17, 4-((4-(1-Isopropylpiperidin-4-yl)pyridin-2-yl)((4-(4-methoxy-3-methylphenyl)bicyclo[2.2.2]octan-1-yl)methyl)carbamoyl)cyclo-hexyl trans-3-hydroxyazetidine-1-carboxylate], the concentration for a half-maximal effect (EC50) was 50 to 1000 nM.

In turn, `COc1ccc([C@H]2CC[C@H](CN(c3cc(-c4cnn(C(C)C)c4)ccn3)C(=O)[C@H]3CC[C@H](OC(=O)N4CCNCC4)CC3)CC2)cc1C` [Compound 2.15, trans-4-((4-(1-Isopropyl-1H-pyrazol-4-yl)pyridin-2-yl) ((trans-4-(4-methoxy-3-methylphenyl)cyclohexyl)methyl)carbamoyl) cyclohexyl piperazine-1-carboxylate] displayed an EC50 of 50 to 1000 nM.

With `COc1ncc([C@H]2CC[C@H](CN(c3cc(-c4coc(C5CC5)n4)ccn3)C(=O)[C@H]3CC[C@H](OC(=O)N4CCN(C)CC4)CC3)CC2)cc1C` [Compound 1.03, trans-4-((4-(2-Cyclopropyloxazol-4-yl)pyridin-2-yl)(((trans)-4-(6-methoxy-5-methylpyridin-3-yl)cyclohexyl)methyl)carbamoyl)cyclohexyl 4-methylpiperazine-1-carboxylate], the EC50 was at most 50 nM.

For `COc1ccc(C23CCC(CN(c4cc(-c5cnc(C(C)C)s5)ccn4)C(=O)[C@H]4CC[C@H](NC(=O)CO)CC4)(CC2)CC3)cc1C` [Compound 9, (trans)-4-(2-Hydroxyacetamido)-N-(4-(2-isopropylthiazol-5-yl)pyridin-2-yl)-N-((4-(4-methoxy-3-methylphenyl)bicyclo[2.2.2]octan-1-yl)methyl)cyclohexanecarboxamide], the EC50 is at most 50 nM.

Turning to `COc1ccc([C@H]2CC[C@H](CN(c3cc(-c4cnn(C(C)C)c4)ccn3)C(=O)[C@H]3CC[C@H](OC(=O)NCC(C)F)CC3)CC2)cc1C` (stereo partly drawn) [Compound 2.28, trans-4-((4-(1-Isopropyl-1H-pyrazol-4-yl)pyridin-2-yl)(((trans)-4-(4-methoxy-3-methylphenyl)cyclohexyl)methyl)carbamoyl) cyclohexyl(2-fluoropropyl)carbamate], the EC50 is at most 50 nM.
